# Measurements from US20240109843A1, “BENZALDEHYDE COMPOUNDS WITH DIRECT POLYMER DESTABILIZING EFFECTS TO TREAT SICKLE CELL DISEASE” (VIRGINIA COMMONWEALTH UNIVERSITY, priority 2018, published 2024).
# Columns and labels:
# [1] = tested on: RBCs from donors with homozygous SCD; assay: Oxygen-independent sickle inhibition in SS blood suspensions under anoxia (100% nitrogen); format: cell-based, human; settings: anoxia
# In short: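 After room-air re-oxygenation for 15 min to reverse sickling, SS blood suspensions were held under 100% nitrogen for 1 h (screening) or up to 2.5 h (time course), with aliquots fixed at set intervals. Sickled versus non-sickled cells were counted by bright-field microscopy to calculate sickle inhibition.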
# [2] = ADME / bioavailability assessment; settings: in vivo
# sickle red blood cells = assay: Antisickling study with human sickle blood under 2.5% oxygen; format: cell-based; settings: Homo sapiens, Erythrocyte, sickle RBCs, 2.5% oxygen, read-out: sickling inhibition
# Description: Blood suspensions from subjects with homozygous SCD (resuspended in Hemox™ buffer to a final hematocrit 20%) were incubated under air in the absence or presence of the compounds (0.5 mM, 1 mM and 2 mM) at 37° C. for 1 h to ensure that binding had attained equilibrium. The suspensions were then incubated under hypoxic conditions (2.5% oxygen/97.5% nitrogen) at 37° C. for 1 h. Aliquot samples were fixed with 2% glutaraldehyde solution without exposure to air, and then subjected to microscopic morphological analysis of bright field images (at 40× magnification) of single layer cells on an Olympus BX40 microscope fitted with an Infinity Lite B camera (Olympus), and the coupled Image Capture software. The residual samples were washed in phosphate-buffer saline, and hemolyzed in hypotonic lysis buffer for subsequent Hb-modification and oxygen equilibrium analyses.
# The studies described above were conducted using normal whole blood. Next, we investigated whether the improvement in Hb oxygen affinity and the compounds sustained activity also translated to similar effects in SS blood from SCD patients. […] At 1 mM, PP8 and PP9 inhibited nearly 100% of sickling, while PP2, PP6, PP14 inhibited sickling by more than 70%. […] It is clear that the modifications of the present compounds has led to significant improvement in antisickling activity.
# intracellular Hb = biological target: T1, intracellular Hb (Mus musculus, UniProt P01942); assay: In vivo modification of intracellular Hb in wild-type mice; parameters: species or system C57BL/6 mice; settings: IP 150 mg/kg, 30% PEG300, 6 h
# T1 construct: from tissue; host or cells: blood (red cell lysates) of dosed C57BL/6 mice
# Description: We tested in vivo pharmacologic (pharmacodynamics) effects of select PP compounds in C57BL/6 mice. The animals were treated with a single intraperitoneal (IP) (150 mg/kg body weight) dose of PP6, PP10, PP14, and TD7, which were formulated with 30% PEG300. Blood samples were obtained prior to treatment (0) and 1, 3 and 6 h post-treatment, via submandibular bleeding, and subjected to hemolysis using standard methods. Clarified lysates, free of cell debris and red blood cell ghosts were analyzed by cation-exchange HPLC to determine the levels of drug-modified hemoglobin (adducts); and to conduct oxygen equilibrium studies to determine degrees of shift in p50 values using methodologies described earlier for in vitro studies on human samples. In a subsequent follow-up experiment, a new excipient obtained from Catalent Pharma Solutions was also used to formulate PP14 and used for a single intraperitoneal (IP) and oral (150 mg/kg body weight) dose. Blood samples were obtained prior to treatment (0) and 1, 3 or 5 h post-treatment, via submandibular bleeding, and used to determine the levels of drug-modified hemoglobin (adducts); and to conduct oxygen equilibrium studies to determine degrees of shift in p50 values as described above.
# Hb [3] = biological target: T2, Hb (Homo sapiens, UniProt P69905); assay: Oxygen equilibrium curve (OEC) studies with normal whole blood; format: cell-based; parameters: Hemoglobin modification, studies using non-sickling AA blood; from tissue; host or cells: non-sickling (AA) human blood, red blood cells; settings: normal whole blood, 0.5, 1, 2 mM
# Description: Oxygen equilibrium curve (OEC) studies to determine the effect of the compounds on Hb affinity for oxygen were conducted following standard procedure. Whole blood (30% hematocrit) was incubated in the absence or presence of compounds (0.5 mM, 1.0 mM and 2.0 mM) solubilized in DMSO. […] After equilibration, the sample was removed via syringe and aspirated into an ABL 700 series table top automated blood gas analyzer (Radiometer America, Inc., Westlake, OH) to determine total hemoglobin (tHb), hematocrit (Hct), pH, pCO2, partial pressure of oxygen (pO2), and the Hb-O2 saturation (sO2) values. The measured values of pO2 and sO2 at each oxygen saturation level were then subjected to nonlinear regression analysis using the software Scientist (Micromath, Salt Lake City UT) with the following equation: […]
# Aromatic aldehydes are known to prevent hypoxia-induced Hb S polymerization by increasing the Hb affinity for oxygen. We therefore tested the PP compounds in a dose-dependent manner (0.5, 1, 2 mM) for their effect on Hb oxygen binding property. […] These findings confirmed that the potent in vitro activity previously seen in TD7 was at least conserved in the novel PP compounds.
# Target sequence in this assay (P69905 2-142 limits assumed): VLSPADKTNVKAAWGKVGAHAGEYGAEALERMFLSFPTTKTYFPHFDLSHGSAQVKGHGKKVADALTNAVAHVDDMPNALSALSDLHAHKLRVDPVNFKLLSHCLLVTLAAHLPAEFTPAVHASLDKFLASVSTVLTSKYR
# Target sequence in this assay (P68871 2-147 partner limits assumed): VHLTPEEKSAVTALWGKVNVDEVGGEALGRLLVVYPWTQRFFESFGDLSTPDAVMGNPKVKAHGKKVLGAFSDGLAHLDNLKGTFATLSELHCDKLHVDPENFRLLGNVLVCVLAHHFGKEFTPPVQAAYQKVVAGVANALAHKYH
# Hb [4] = biological target: T2, Hb; assay: Time-dependent Hb-compound adduct formation (Hb modification) in normal whole blood; format: binding; parameters: Hemoglobin modification, studies using non-sickling AA blood; from tissue; host or cells: non-sickling (AA) human blood, red blood cells; settings: 2 mM, normal adult blood, hematocrit 30%, 37° C.
# Target sequence in this assay (P69905 2-142 limits assumed): as the sequence (P69905 2-142 limits assumed) above
# Target sequence in this assay (P68871 2-147 partner limits assumed): as the sequence (P68871 2-147 partner limits assumed) above
# Hb [5] = biological target: T2, Hb; assay: Drug partitioning studies, fixed and unfixed Hb adducts in non-sickling AA blood; format: cell-based; parameters: Hemoglobin modification, studies using non-sickling AA blood; from tissue; host or cells: non-sickling (AA) human blood, red blood cells; settings: 2 mM
# In short: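 Non-sickling blood was incubated with test molecules and lysed either in water (unfixed) or in 50 mM sodium borohydride (fixed). Hb adducts were quantified by cation-exchange HPLC as a fraction of total Hb. The partitioning ratio is fixed over unfixed modification and reflects intracellular Hb binding after RBC membrane permeation.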
# Target sequence in this assay (P69905 2-142 limits assumed): as the sequence (P69905 2-142 limits assumed) above
# Target sequence in this assay (P68871 2-147 partner limits assumed): as the sequence (P68871 2-147 partner limits assumed) above
# Hb [6] = biological target: T2, Hb; assay: Hb modification (drug-adduct formation) in SS blood suspensions by cation-exchange HPLC; format: binding; parameters: Blood suspensions from subjects with homozygous SCD; from tissue; host or cells: blood suspensions (20% hematocrit) from donors with homozygous SCD; lysates of the treated red cells; settings: 2 mM, 4 biological replicates
# In short: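 Homozygous SCD blood at 20% hematocrit in Hemox buffer with glucose and BSA was incubated with compound (0-2 mM) 1 h at 37° C in air, then up to 2 h hypoxia (2.5% O2). Lysates, with or without 50 mM sodium borohydride reduction, were analysed by weak cation-exchange HPLC at A410 nm for Hb-drug adducts.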
# Target sequence in this assay (P69905 2-142): as the sequence (P69905 2-142 limits assumed) above
# Target sequence in this assay (P68871 with tags, fused parts or gaps E7V partner): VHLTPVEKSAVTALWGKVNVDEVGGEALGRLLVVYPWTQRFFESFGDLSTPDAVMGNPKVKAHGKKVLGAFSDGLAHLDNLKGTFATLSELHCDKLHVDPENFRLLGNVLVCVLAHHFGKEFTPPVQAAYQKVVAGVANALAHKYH
# T1 sequence (P01942 2-142 limits assumed): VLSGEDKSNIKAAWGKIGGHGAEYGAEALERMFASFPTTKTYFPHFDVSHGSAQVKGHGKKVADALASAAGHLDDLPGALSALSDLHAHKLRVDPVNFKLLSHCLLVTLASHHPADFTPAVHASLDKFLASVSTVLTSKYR
# T1 sequence (P02088 2-147 partner limits assumed): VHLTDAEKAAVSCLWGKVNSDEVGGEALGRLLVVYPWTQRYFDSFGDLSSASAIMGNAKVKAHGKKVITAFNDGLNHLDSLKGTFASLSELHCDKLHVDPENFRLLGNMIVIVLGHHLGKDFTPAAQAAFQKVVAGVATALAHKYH
SMILES,polymer destabilizing effect / sickle inhibition in anoxia (in words) [1],bioavailability [2],inhibition at 500 µM (sickle red blood cells; 0.5 mM) [%],inhibition at 1000 µM (sickle red blood cells; 1 mM) [%],modified Hb (intracellular Hb) [%],effect on Hb oxygen binding property (OEC) (Hb [3]),loss of Hb modification activity at 24 hours (Hb [4]) [%],Fixed Adducts (%) (Hb [5]; 6 biological replicates),Unfixed Adduct (%) (Hb [5]; 6 biological replicates),Partitioning Ratio (%) (Hb [5]; fixed relative to unfixed adducts),Hb Modification (%) (Hb [6])
"O=Cc1c(O)cccc1OCc1ccccc1 [Reference A, 2-(benzyloxy)-6-hydroxybenzaldehyde, reference compound]",exhibits potent polymer destabilizing effects,not bioavailable,–,–,–,–,–,–,–,–,–
"COc1ccc(OCc2cccc(CO)n2)c(C=O)c1 [TD-7, reference compound]",–,–,26,47,1.5±0.3,relatively similar potency as most of the best PP compounds,45,80.9 ± 2.5,73.5 ± 1.5,103.7 ± 7.5,72.5
